Each structure is given as a SMILES string.

The test system of one data set is fruit flies. The data set can be described thus: Longevity comparison of erythritol with other human-safe sweet alcohols. Type of data set: in vivo, Drosophila melanogaster. The note with it: 1 M sweetener in standard fly food, 17 days; for longevity compared to sucrose control: log rank test. As to the method: An experiment was conducted to compare the effectiveness of erythritol with other human-safe sweet alcohols: D-mannitol, maltitol, sucrose, and xylitol. The concentration of all sweet alcohols were 1M. Flies were raised for 17 days on standard fly food that contained 1 M concentrations of each sweetener treatment. Death of flies was recorded daily as before; each treatment was replicated on three vials of 10 flies each for 30 subjects/treatment. Differences in longevity were analyzed using the Kaplan-Meier survival analysis log rank test, making all pairwise comparisons among treatments.

For data set [1], the system named is Drosophila melanogaster. The data set can be described thus: Two-way choice experiments, longevity. Type of data set: in vivo. The following applies: 30 days. The protocol: Foods containing 2 M erythritol, 1M erythritol and 1M sucrose were prepared for paired presentations in open choice tests. In each treatment one food type contained 0.05% brilliant blue FCF (Fisher 50-727-25). The blue dye allowed visual confirmation of feeding on the dyed food in the pair. The flies were presented with access to two food choices by using a modified cotton stopper with approximately a 1.5 cm diameter hole to connect each pair of food tubes. […] The final choice treatment was between blue 2M erythritol food and non-blue 1M sucrose food (this treatment provides a comparison with the 1 M erythritol/1 M erythritol treatment as a test of dilution of toxicity by alternative food sources; blue guts would confirm erythritol was being consumed in the presence of sucrose). The number of flies with visible blue gut contents and mortality daily were recorded for 30 days. Analyses were conducted with SPSS software v. 20 (IBM corporation 2011). Fly longevity data were analyzed using survival analysis with right-hand censoring of subjects that lived to the end of the study or were lost for reasons other than death. Test were run for differences in survival distributions [Pr(flies alive) versus insect age] using the log-rank (Mantel-Cox) test to make all pairwise comparisons among treatments within each experiment.

Data set [2] has as its system Drosophila melanogaster. Nature of the data set: Longevity assay of adult flies raised on food containing sweeteners. Type of data set: in vivo. The following applies: repeat study with blue dye food. As to the method:
All animals were cultured at 25° C., kept at 50-60% humidity, and were raised under a standard 12:12 light dark cycle. For each experimental treatment, n=30 flies were tested in groups of 10 per tube, and three tubes per treatment. Tubes were kept on their side to minimize subject becoming mired in the food. Foods were replaced twice a week. The total number of fruit flies used for these experiments was 780, with 300 used for two initial trials testing mortality among store-brand sweeteners, 210 used for repeating this with blue dye and pure erythritol, 120 for choice trials and 150 for concentration trials.
Standard Drosophila food for larval culturing consisted of water, cornmeal, yeast, molasses, and agar, as previously described (Chakraborty, et al., 2011, PLoS ONE 6: e20799). […] The addition of cornmeal and yeast assured the flies still received sufficient carbohydrates and protein in addition to any effects of the treatment additives.
Drosophila food was combined with an equal weight/volume (0.0238 g/ml) of one non-nutritive sweetener (TRUVIA, EQUAL, SPLENDA, SWEET'NLOW, or PUREVIA) or a control nutritive sweetener (controls: sucrose or corn syrup). Wild type (Canton S) larvae were initially raised on the standard food, and 0-12 hour old adult flies were transferred to foods containing one non-nutritive sweetener or a control treatment. […] The number of dead flies were scored daily.

The subject of a further data set is humans. The following applies: oral consumption; cited from earlier work.
Data set [3] deals with Drosophila melanogaster. Nature of the data set: Concentration trials of erythritol on fly longevity. Type of data set: in vivo. As to the method: Standard fly foods were prepared as previously described, and then were treated with 2M, 1M, 0.5M and 0.1M concentrations of erythritol, using 0.5M sucrose as control. 0 to 24 hour-old Drosophila were placed on these foods and mortality was recorded daily for 35 days as above. Analyses were conducted with SPSS software v. 20 (IBM corporation 2011). Fly longevity data were analyzed using survival analysis with right-hand censoring of subjects that lived to the end of the study or were lost for reasons other than death. Test were run for differences in survival distributions [Pr(flies alive) versus insect age] using the log-rank (Mantel-Cox) test to make all pairwise comparisons among treatments within each experiment.

In the case of `OC[C@@H](O)[C@@H](O)[C@H](O)[C@H](O)CO` [D-mannitol], the “longevity compared to sucrose control” value in the data set with fruit flies is on record as “slightly but significantly reduced longevity”.

With `OC[C@@H](O)[C@@H](O)CO` [erythritol, (2R,3S)-butane-1,2,3,4-tetraol], the “longevity relative to sucrose:sucrose choice” value was “significantly decreased longevity” in the data set on Drosophila melanogaster [1] (choice between 1M sucrose and 1M erythritol); “significantly reduced” in the data set on Drosophila melanogaster [1] (choice between 1M sucrose and 2M erythritol). Besides, the “survival distributions, 2M erythritol/1M sucrose choice versus 1M erythritol/1M erythritol” value in the data set with Drosophila melanogaster [1] (choice chamber) was “nearly identical”. In addition, in the data set with fruit flies (mean ± SE), the mean fly longevity was 4.7 ± 0.15 days. The “longevity, erythritol versus TRUVIA treatment” value with Drosophila melanogaster [2] (0.0238 g/ml) is recorded as “did not differ”. Moreover, the “longevity compared to PUREVIA, EQUAL, sucrose and corn syrup” value in the data set on Drosophila melanogaster [2] (0.0238 g/ml of each sweetener) is reported as “significant decreases in longevity”. In the data set with humans, the “tolerability of consumption by humans” value was “very well tolerated”. In addition, the “longevity compared to control food containing 0.5M sucrose” value is given as “no significant difference in longevity” with Drosophila melanogaster [3] (0.1M erythritol in food, observations terminated at 35 days); “significant reductions in longevity” with Drosophila melanogaster [3] (0.5M erythritol in food, 35 days); “significant reductions in longevity” in the data set with Drosophila melanogaster [3] (1M erythritol in food, 35 days). Moreover, the “effect on longevity compared to all other treatments” value in the data set on Drosophila melanogaster [3] (2M erythritol in food, 35 days) was “significant and severe effect on longevity”.

As to `OC[C@@H](O)[C@@H](O[C@H]1O[C@H](CO)[C@@H](O)[C@H](O)[C@H]1O)[C@H](O)[C@@H](O)CO` [maltitol], the “longevity compared to sucrose control” value in the data set with fruit flies was “did not differ from the control”.

`OC[C@@H](O)[C@H](O)[C@@H](O)CO` [xylitol]: the “longevity compared to sucrose control” value in the data set on fruit flies is given as “did not differ from the control”.

Source of the values: patent publication US20200390095A1, “USE OF ERYTHRITOL OR COMPOSITIONS COMPRISING SAME AS MAMMAL-SAFE INSECTICIDES” (Drexel University, priority 2014, published 2020).
